From patent US6936622B2, “6-phenylbenzonaphthyridines” (Altana Pharma AG, priority 2001, dated 2005)
Where a name gives a salt, the structure may show the parent alone.

Legend:
PDE3 (cGMP-inhibited) = target: T1, PDE3 (cGMP-inhibited) (Homo sapiens, UniProt Q14432); experiment: Inhibition of PDE isoenzymes: PDE3; assay type: biochemical; conditions: homogenates of human platelets, cAMP or cGMP as substrate; read-out: PDE3 [-log IC50, mol/l] (converted)
T1 construct: investigated in homogenates of human platelets; from tissue; host or cells: homogenates of human platelets
Protocol: (§1) 1. Inhibition of PDE Isoenzymes
(§2) The PDE activity was determined according to Thompson et al. (Adv Cycl Nucl Res 10: 69-92, 1979) with some modifications (Bauer and Schwabe, Naunyn-Schmiedeberg's Arch Pharmacol 311: 193198, 1980). The test samples contained 20 mM Tris (pH 7.4), 5 mM MgCl2, 0.5 μM cAMP or cGMP, [^3H]cAMP or [^3H]cGMP (about 30 000 cpm/sample), the PDE isoenzyme-specific additives described in greater detail below, the indicated concentrations of inhibitor and an aliquot of the enzyme solution in a total sample volume of 200 μl. Dilution series of the compounds according to the invention were prepared in DMSO and further diluted in the samples [1:100 (v/v)], to give the desired end concentration of the inhibitors at a DMSO concentration of 1% (v/v), which for its part has only a minute effect on PDE activity.
(§3) After preincubation at 37° C. for 5 minutes, the reaction was started by addition of the substrate (cAMP or cGMP). The samples were incubated at 37° C. for a further 15 min. The reaction was terminated by addition of 50 μl 0.2 N HCl. After cooling on ice for 10 minutes and addition of 25 μg 5′-nucleotidase (snake venom from Crotalus atrox), the mixture was again incubated at 37° C. for 10 min and the samples were then applied to QAE Sephadex A-25 columns (sample volume 1 ml). The columns were eluted with 2 ml of 30 mM ammonium formate (pH 6.0). The radioactivity of the eluate was measured and corrected by the corresponding blank values (measured in the presence of denatured protein); the blank values were less than 5% of the total radioactivity. In no case did the proportion of hydrolyzed nucleotide exceed 30% of the original substrate concentration.
PDE3 (cGMP-inhibited) was investigated in homogenates of human platelets (see Schudt et al., Biochem Pharmacol 1991: 42, 153-162) using cAMP or cGMP as substrate.
(§4) The IC50 values were determined from the concentration-inhibition curves by nonlinear regression.

PDE4 (cAMP-specific) = experiment: Inhibition of PDE isoenzymes: PDE4; assay type: biochemical; conditions: cytosol of human polymorphonuclear leukocytes (PMNL), cAMP as substrate, motapizone 1 μM
Protocol: as §1, §2, §3
PDE4 (cAMP-specific) was investigated in the cytosol of human polymorphonuclear leukocytes (PMNL) [isolated from leukocyte concentrates, see Schudt et al., Arch Pharmacol 1991: 344, 682-690] using cAMP as substrate. The PDE3 inhibitor motapizone (1 μM) was used to suppress the PDE3 activity emanating from contaminated platelets.
as §4

T1 sequence (Q14432 whole entry): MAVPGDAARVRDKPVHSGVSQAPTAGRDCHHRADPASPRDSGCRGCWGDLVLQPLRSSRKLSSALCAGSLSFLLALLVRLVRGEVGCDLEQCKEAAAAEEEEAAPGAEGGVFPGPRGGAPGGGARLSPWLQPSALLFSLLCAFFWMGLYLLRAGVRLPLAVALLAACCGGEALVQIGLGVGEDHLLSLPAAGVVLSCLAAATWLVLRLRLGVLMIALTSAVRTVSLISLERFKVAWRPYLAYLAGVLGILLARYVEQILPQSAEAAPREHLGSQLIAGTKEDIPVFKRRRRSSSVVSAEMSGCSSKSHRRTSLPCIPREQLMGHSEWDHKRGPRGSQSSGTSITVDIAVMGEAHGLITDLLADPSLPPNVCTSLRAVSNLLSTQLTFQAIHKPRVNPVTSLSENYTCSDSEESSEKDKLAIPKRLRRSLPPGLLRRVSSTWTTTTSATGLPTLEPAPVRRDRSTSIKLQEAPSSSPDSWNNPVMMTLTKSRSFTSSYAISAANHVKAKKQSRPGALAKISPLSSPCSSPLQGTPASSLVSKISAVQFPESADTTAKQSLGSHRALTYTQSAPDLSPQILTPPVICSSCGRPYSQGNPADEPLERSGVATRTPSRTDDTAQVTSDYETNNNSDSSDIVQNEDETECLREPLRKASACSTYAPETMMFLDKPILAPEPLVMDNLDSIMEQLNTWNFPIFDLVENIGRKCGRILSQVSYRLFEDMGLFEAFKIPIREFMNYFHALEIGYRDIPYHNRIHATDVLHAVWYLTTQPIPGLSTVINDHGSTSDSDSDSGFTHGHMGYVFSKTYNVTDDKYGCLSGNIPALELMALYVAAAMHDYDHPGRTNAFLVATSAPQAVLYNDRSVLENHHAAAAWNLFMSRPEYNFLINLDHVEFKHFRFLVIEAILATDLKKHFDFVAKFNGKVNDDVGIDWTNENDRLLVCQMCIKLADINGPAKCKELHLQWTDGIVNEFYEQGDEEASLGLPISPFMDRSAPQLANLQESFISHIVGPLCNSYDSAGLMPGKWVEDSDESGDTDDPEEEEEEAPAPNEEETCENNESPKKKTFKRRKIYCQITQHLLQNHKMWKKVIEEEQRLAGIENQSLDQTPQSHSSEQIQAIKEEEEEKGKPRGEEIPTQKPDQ

IC50 (PDE3 (cGMP-inhibited))	PDE4 [-log IC50, mol/l] (PDE4 (cAMP-specific))	melting point	Compound
97.7 nM	9.65		CCOc1cc2c(cc1OC)C(c1ccc(C(=O)NC(=N)NCC3CCCCC3)cc1)=N[C@H]1CCN(C)C[C@@H]21 (relative stereo) [Compound 20, N-Cyclohexylmethyl-N′-{1-[4-((−)-cis-9-ethoxy-8-methoxy-2-methyl-1,2,3,4,4a,10b-hexahydro-benzo[c][1,6]naphthyridin-6-yl)-phenyl]-methanoyl}-guanidine]
		161 to 166 °C	COc1cc2c(cc1OC)[C@@H]1CN(C)CC[C@@H]1N=C2c1ccc(C(=O)N=C(N(C)C)N(C)C)cc1.Cl
		169 to 175 °C	CCOc1cc2c(cc1OC)C(c1ccc(C(=O)N=C(N(C)C)N(C)C)cc1)=NC1CCN(C)CC21 (single isomer, unassigned) (as salt: hydrochloride) [Compound 5, N″{1-[4-((−)-cis-9-Ethoxy-8-methoxy-2-methyl-1,2,3,4,4a,10b-hexahydro[c][1.6]naphthyridin-6-yl)phenyl]methanoyl}-N,N,N′,N′-tetramethylguanidine hydrochloride]
129 nM	9.49		CCCCNC(=N)NC(=O)c1ccc(C2=N[C@H]3CCN(C)C[C@H]3c3cc(OCC)c(OC)cc32)cc1 (relative stereo) [Compound 21, N-Butyl-N′-{1-[4-((−)-cis-9-ethoxy-8-methoxy-2-methyl-1,2,3,4,4a,10b-hexahydro-benzo[c][1,6]naphthyridin-6-yl)-phenyl]-methanoyl}-guanidine]
42.7 nM	9.77		CCOc1cc2c(cc1OC)C(c1ccc(C(=O)NC(=N)N(CC)CC)cc1)=NC1CCN(C)CC21 (stereo not drawn) [Compound 2, N′-{1-[4-((+)-cis-9-Ethoxy-8-methoxy-2-methyl-1,2,3,4,4a,10b-hexahydro[c][1,6]naphthyridin-6-yl)phenyl]methanoyl}-N,N-diethylguanidine dihydrochloride]
		208 to 218 °C	CCOc1cc2c(cc1OC)C(c1ccc(C(=O)NC(=N)N3CCOCC3)cc1)=NC1CCN(C)CC21 (stereo not drawn) (as salt: hydrochloride) [Compound 1, 4-[(+)-cis-9-Ethoxy-8-methoxy-2-methyl-1,2,3,4,4a,10b-hexahydro[c][1,6]naphthyridin-yl)-N-(1-imino-1-morpholin-4-ylmethyl)]benzamide dihydrochloride]
132 nM	9.50		CCOc1cc2c(cc1OC)C(c1ccc(C(=O)NC(=N)NC3CCCCC3)cc1)=N[C@H]1CCN(C)C[C@@H]21 (relative stereo) [Compound 19, N-Cyclohexyl-N′-{1-[4-((−)-cis-9-ethoxy-8-methoxy-2-methyl-1,2,3,4,4a,10b-hexahydro-benzo [c][1,6]naphthyridin-6-yl)-phenyl]-methanoyl}-guanidine]
1150 nM	8.34		CCOc1cc2c(cc1OC)C(c1ccc(C(=O)NC(=N)N(C)CCO)cc1)=NC1CCN(C)CC21 (stereo not drawn) [Compound 4, N′-{1-[4-((+)-cis-9-Ethoxy-8-methoxy-2-methyl-1,2,3,4,4a,10b-hexahydro[c][1,6]naphthyridin-6-yl)phenyl]methanoyl}-N-(2-hydroxyethyl)-N-methylguanidine dihydrochloride]
363 nM	9.13		CCOc1cc2c(cc1OC)C(c1ccc(C(=O)N=C(N)N3CCN(C)CC3)cc1)=NC1CCN(C)CC21 (stereo not drawn) [Compound 6, N-[1-Amino-1-(4-methylpiperazin-1-yl)methylene]-4-((+)-cis-9-ethoxy-8-methoxy-2-methyl-1,2,3,4,4a,10b-hexahydro[c][1,6]naphthyridin-6-yl)benzamide dihydrochloride]
155 nM	9.11		CCOc1cc2c(cc1OC)C(c1ccc(C(=O)NC(=N)NC(C)C)cc1)=N[C@H]1CCN(C)C[C@@H]21 (relative stereo) [Compound 15, N-{1-[4-((−)-cis-9-Ethoxy-8-methoxy-2-methyl-1,2,3,4,4a,10b-hexahydro-benzo[c][1,6]naphthyridin-6-yl)-phenyl]-methanoyl}-N′-isopropyl-guanidine]
309 nM	8.82		CCOc1cc2c(cc1OC)C(c1ccc(C(=O)NC(=N)NC)cc1)=N[C@H]1CCN(C)C[C@@H]21 (relative stereo) [Compound 14, N-{1-[4-((−)-cis-9-Ethoxy-8-methoxy-2-methyl-1,2,3,4,4a,10b-hexahydro-benzo[c][1,6]naphthyridin-6-yl)-phenyl]-methanoyl}-N′-methyl-guanidine]
		134 to 141 °C	CCOc1cc2c(cc1OC)C(c1ccc(C(=O)NC(=N)N(C)C)cc1)=NC1CCN(C)CC21 (stereo not drawn) (as salt: hydrochloride) [Compound 3, N′{1-[4-((+)-cis-9-Ethoxy-8-methoxy-2-methyl-1,2,3,4,4a,10b-hexahydro[c][1,6[-naphthyridin-6-yl)phenyl]methanoyl}-N,N-dimethylguanidinedihydrochloride]
87.1 nM	9.39		CCOc1cc2c(cc1OC)C(c1ccc(C(=O)NC(=N)N(C)C)cc1)=NC1CCN(C)CC21 (stereo not drawn) [Compound 3, N′{1-[4-((+)-cis-9-Ethoxy-8-methoxy-2-methyl-1,2,3,4,4a,10b-hexahydro[c][1,6[-naphthyridin-6-yl)phenyl]methanoyl}-N,N-dimethylguanidinedihydrochloride]
135 nM	9.22		CCOc1cc2c(cc1OC)C(c1ccc(C(=O)NC(=N)N3CCOCC3)cc1)=NC1CCN(C)CC21 (stereo not drawn) [Compound 1, 4-[(+)-cis-9-Ethoxy-8-methoxy-2-methyl-1,2,3,4,4a,10b-hexahydro[c][1,6]naphthyridin-yl)-N-(1-imino-1-morpholin-4-ylmethyl)]benzamide dihydrochloride]
		172 to 179 °C	CCOc1cc2c(cc1OC)C(c1ccc(C(=O)NC(=N)N(C)CCO)cc1)=NC1CCN(C)CC21 (stereo not drawn) (as salt: hydrochloride) [Compound 4, N′-{1-[4-((+)-cis-9-Ethoxy-8-methoxy-2-methyl-1,2,3,4,4a,10b-hexahydro[c][1,6]naphthyridin-6-yl)phenyl]methanoyl}-N-(2-hydroxyethyl)-N-methylguanidine dihydrochloride]
129 nM	9.01		CCOc1cc2c(cc1OC)C(c1ccc(C(=O)N=C(N(C)C)N(C)C)cc1)=NC1CCN(C)CC21 (single isomer, unassigned) [Compound 5, N″{1-[4-((−)-cis-9-Ethoxy-8-methoxy-2-methyl-1,2,3,4,4a,10b-hexahydro[c][1.6]naphthyridin-6-yl)phenyl]methanoyl}-N,N,N′,N′-tetramethylguanidine hydrochloride]
166 nM	9.65		CCCNC(=N)NC(=O)c1ccc(C2=N[C@H]3CCN(C)C[C@H]3c3cc(OCC)c(OC)cc32)cc1 (relative stereo) [Compound 16, N-{1-[4-((−)-cis-9-Ethoxy-8-methoxy-2-methyl-1,2,3,4,4a,10b-hexahydro-benzo[c][1,6]naphthyridin-6-yl)-phenyl]-methanoyl}-N′-propyl-guanidine]
195 nM	8.83		CCOc1cc2c(cc1OC)C(c1ccc(C(=O)NC(=N)N)cc1)=N[C@H]1CCN(C)C[C@@H]21 (relative stereo) [Compound 7, N-{1-[4-((−)-cis-9-Ethoxy-8-methoxy-2-methyl-1,2,3,4,4a,10b-hexahydro-benzo[c]-[1,6]naphthyridin-6-yl)-phenyl]-methanoyl}guanidine]
245 nM	8.76		CCNC(=N)NC(=O)c1ccc(C2=N[C@H]3CCN(C)C[C@H]3c3cc(OCC)c(OC)cc32)cc1 (relative stereo) [Compound 18, N-{1-[4-((−)-cis-9-Ethoxy-8-methoxy-2-methyl-1,2,3,4,4a,10b-hexahydro-benzo[c][1,6]naphthyridin-6-yl)-phenyl]-methanoyl}-N′-ethyl-guanidine]
123 nM	9.34		CCOc1cc2c(cc1OC)C(c1ccc(C(=O)NC(=N)NCC(C)C)cc1)=N[C@H]1CCN(C)C[C@@H]21 (relative stereo) [Compound 17, N-{1-[4-((−)-cis-9-Ethoxy8-methoxy-2-methyl-1,2,3,4,4a,10b-hexahydro-benzo[c][1,6]naphthyridin-6-yl)-phenyl]-methanoyl}-N′-isobutyl-guanidine]
